Results on ten compounds are retold here after ChEMBL document CHEMBL4680089, “Development of Allosteric Hydrazide-Containing Class I Histone Deacetylase Inhibitors for Use in Acute Myeloid Leukemia” (J Med Chem, 2016).

In general, IC50 refers to the concentration that gives 50% inhibition. Usually EC50 stands for the concentration that produces a half-maximal response.

Series [1] is described as follows: Drug metabolism in human liver microsomes assessed as o-glucuronidated metabolite formation in presence of UDP glucuronic acid incubated for 12 hrs at 37 degC by electrospray ionization liquid chromatography mass spectrometry. Format: ADME, Microsome.
Series [2] is described as follows: Drug metabolism in human liver microsomes assessed as o-glucuronidated metabolite formation in absence of UDP glucuronic acid incubated for 12 hrs at 37 degC by electrospray ionization liquid chromatography mass spectrometry. In kind it is ADME, Microsome.
Series [3] deals with HEK293. As to the kind of experiment: Cytotoxicity against HEK293 cells assessed as reduction in cell viability incubated for 48 hrs by Cell-titer-blue cell viability assay. In kind it is cell-based. Particulars: human, hek293, 48 h.
Series [4] concerns the target T1, Class 1 histone deacetylase (Homo sapiens) (UniProt Q13547+O15379+Q92769+Q9BY41). Particulars: time 24.0 hrs.
In series [5] the target is T1, Class 1 histone deacetylase (Homo sapiens). Particulars: time 24.0 hrs. The source holds these as a separate data set.
For series [6], the target named is T2, Protein deacetylase HDAC6 (Homo sapiens) (UniProt Q9UBN7).
T2 sequence (whole entry): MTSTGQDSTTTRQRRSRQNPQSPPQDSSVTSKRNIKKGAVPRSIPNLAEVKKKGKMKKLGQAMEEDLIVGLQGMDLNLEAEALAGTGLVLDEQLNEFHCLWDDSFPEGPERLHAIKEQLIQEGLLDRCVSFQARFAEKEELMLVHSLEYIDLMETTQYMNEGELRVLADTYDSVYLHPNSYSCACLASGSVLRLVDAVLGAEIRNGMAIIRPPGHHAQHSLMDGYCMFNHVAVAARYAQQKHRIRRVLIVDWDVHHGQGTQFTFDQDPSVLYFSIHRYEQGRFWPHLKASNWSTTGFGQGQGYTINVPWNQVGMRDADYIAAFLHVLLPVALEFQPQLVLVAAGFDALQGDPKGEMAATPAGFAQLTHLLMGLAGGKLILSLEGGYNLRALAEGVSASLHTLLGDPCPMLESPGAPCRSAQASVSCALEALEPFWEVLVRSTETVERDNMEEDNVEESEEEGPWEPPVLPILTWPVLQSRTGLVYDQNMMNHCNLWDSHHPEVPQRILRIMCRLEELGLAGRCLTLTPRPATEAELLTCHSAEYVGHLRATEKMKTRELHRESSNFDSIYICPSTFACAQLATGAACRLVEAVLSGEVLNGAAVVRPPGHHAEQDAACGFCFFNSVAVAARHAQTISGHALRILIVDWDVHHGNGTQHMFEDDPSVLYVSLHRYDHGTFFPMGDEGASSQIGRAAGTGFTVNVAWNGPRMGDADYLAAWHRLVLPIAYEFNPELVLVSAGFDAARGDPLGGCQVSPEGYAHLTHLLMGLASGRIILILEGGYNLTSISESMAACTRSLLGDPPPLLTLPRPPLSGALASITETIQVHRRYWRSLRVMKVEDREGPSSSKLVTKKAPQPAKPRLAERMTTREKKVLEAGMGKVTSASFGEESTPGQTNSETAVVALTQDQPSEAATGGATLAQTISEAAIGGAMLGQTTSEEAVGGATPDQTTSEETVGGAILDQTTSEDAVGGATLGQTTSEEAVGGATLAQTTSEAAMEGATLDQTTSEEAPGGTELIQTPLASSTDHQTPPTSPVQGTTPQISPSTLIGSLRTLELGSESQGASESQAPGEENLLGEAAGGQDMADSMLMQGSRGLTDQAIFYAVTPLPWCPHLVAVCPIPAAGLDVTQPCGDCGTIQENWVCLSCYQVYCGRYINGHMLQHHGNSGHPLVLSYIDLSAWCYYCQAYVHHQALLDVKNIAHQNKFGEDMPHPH
Particulars: MV4-11, dose 100.0 nM, time 24.0 hrs.

Series [7] is described as follows: Cytotoxicity against human PBMC assessed as reduction in cell viability incubated for 24 hrs by Cell-titer-blue cell viability assay relative to panobinostat.
For series [8], the target named is Histone deacetylase 3 (Homo sapiens, UniProt O15379). As to the kind of experiment: Allosteric inhibition of C-terminal His-tagged recombinant human HDAC3 expressed in Sf9 cells pre-incubated for 2 hrs before acetylated lysine-aminomethyl coumarin-BOC addition and measured after 2 hrs by fluorescence based assay.
Sequence of Histone deacetylase 3 (O15379 whole entry): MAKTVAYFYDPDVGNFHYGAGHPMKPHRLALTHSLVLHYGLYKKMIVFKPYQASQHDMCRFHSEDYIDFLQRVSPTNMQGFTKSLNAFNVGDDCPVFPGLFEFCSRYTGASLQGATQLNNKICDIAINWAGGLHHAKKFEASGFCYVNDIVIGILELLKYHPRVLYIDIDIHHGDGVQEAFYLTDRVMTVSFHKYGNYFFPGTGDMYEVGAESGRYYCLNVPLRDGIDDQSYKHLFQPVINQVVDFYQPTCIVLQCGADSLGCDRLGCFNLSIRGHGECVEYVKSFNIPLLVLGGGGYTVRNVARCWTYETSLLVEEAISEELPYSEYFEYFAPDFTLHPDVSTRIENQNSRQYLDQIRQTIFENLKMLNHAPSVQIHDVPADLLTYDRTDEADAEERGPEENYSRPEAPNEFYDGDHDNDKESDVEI
The test system of series [9] is MV4-11. As to the kind of experiment: cells. Format: functional, cell-based. Particulars: Homo sapiens, MV4-11, 48 h.
Description: Cytotoxicity against human MV4-11 cells assessed as reduction in cell viability incubated for 48 hrs by Cell-titer-blue cell viability assay
Series [10] relates to MOLM-14. As to the kind of experiment: Cytotoxicity against human MOLM-14 cells assessed as reduction in cell viability incubated for 48 hrs by Cell-titer-blue cell viability assay. In kind it is functional, cell-based. Particulars: MOLM-14, 48 h.
The subject of series [11] is RS4-11. As to the kind of experiment: Cytotoxicity against human RS4-11 cells assessed as reduction in cell viability incubated for 48 hrs by Cell-titer-blue cell viability assay. Format: functional, cell-based. Particulars: RS4-11, 48 h.
Series [12] relates to K562. As to the kind of experiment: Cytotoxicity against human K562 cells assessed as reduction in cell viability incubated for 48 hrs by Cell-titer-blue cell viability assay. Particulars: K562, 48 h. In kind it is functional, cell-based.
For series [13], the system named is HL-60. As to the kind of experiment: Cytotoxicity against human HL-60 cells assessed as reduction in cell viability incubated for 48 hrs by Cell-titer-blue cell viability assay. Particulars: HL-60, 48 h. Format: functional, cell-based.
Series [14] concerns RPMI-8226. As to the kind of experiment: Cytotoxicity against human RPMI-8226 cells assessed as reduction in cell viability incubated for 48 hrs by Cell-titer-blue cell viability assay. Format: functional, cell-based. Particulars: RPMI-8226, 48 h.
A short description of series [15]: Drug metabolism in human liver microsomes assessed as compound reduction in absence of UDP glucuronic acid incubated for 12 hrs at 37 degC by electrospray ionization liquid chromatography mass spectrometry. In kind it is ADME, Microsome. (In general: Liver microsomes are vesicles of endoplasmic reticulum, rich in cytochrome P450 enzymes.)
Series [16] can be described thus: Cytotoxicity against human PBMC assessed as reduction in cell viability at 10 nM incubated for 24 hrs by Cell-titer-blue cell viability assay. Particulars: 0.01 µM.
[17] abbreviates: MV4-11, filed as negative allosteric modulator, dose 100.0 nM.

Activity calls are given as the source filed them. No cut-off for these calls is given here.

T1 sequence (O15379 whole entry, looked up): as the sequence (O15379 whole entry) above
T1 sequence (Q13547 whole entry, looked up): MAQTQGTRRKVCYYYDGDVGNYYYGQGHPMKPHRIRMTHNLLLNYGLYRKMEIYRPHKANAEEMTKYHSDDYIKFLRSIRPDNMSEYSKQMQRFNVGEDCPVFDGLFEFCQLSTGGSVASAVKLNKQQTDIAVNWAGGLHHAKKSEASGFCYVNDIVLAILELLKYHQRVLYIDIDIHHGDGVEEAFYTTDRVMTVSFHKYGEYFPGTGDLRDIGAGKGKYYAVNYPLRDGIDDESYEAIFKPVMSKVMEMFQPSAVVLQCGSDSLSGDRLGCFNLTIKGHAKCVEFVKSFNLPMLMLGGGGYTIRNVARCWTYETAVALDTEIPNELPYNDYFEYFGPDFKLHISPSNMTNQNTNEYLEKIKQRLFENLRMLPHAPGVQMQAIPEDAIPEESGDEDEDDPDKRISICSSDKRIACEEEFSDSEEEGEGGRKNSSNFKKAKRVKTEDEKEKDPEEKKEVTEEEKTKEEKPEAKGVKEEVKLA
T1 sequence (Q92769 whole entry, looked up): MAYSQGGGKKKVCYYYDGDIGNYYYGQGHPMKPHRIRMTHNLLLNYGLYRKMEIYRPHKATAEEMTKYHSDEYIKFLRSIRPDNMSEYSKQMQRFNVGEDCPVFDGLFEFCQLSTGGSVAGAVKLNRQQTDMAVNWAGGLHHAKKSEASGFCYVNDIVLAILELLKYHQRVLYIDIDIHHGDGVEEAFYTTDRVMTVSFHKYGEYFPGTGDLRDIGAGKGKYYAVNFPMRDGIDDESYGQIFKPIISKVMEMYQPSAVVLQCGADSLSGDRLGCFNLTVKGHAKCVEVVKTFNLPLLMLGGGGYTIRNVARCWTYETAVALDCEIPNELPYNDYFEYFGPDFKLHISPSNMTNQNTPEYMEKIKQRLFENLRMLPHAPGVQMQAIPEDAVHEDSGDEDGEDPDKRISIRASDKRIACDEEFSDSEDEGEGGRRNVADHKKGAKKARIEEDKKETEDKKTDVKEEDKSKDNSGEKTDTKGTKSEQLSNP
T1 sequence (Q9BY41 whole entry, looked up): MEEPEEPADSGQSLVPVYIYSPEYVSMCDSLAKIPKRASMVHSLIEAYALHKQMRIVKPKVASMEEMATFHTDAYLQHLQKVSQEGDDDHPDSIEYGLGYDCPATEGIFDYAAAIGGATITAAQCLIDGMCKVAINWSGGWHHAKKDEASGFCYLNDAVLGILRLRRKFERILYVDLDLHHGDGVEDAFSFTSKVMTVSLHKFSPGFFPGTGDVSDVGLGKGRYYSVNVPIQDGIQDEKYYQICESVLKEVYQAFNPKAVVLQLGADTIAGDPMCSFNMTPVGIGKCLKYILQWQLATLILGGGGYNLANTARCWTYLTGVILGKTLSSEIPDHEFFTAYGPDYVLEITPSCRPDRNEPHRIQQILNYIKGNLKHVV

On to `CCCNNC(=O)c1ccc(CNC(=O)c2ccccc2)cc1`, for which the Drug metabolism entry in series [1] and in series [2] was “Metabolite_Notdetected” each time. Further, the Activity result in [3] and in series [7] was “Non-Toxic” in each case. Also, the inhibition result in series [4] (setting [17]) and in series [5] (setting [17]) was “Active” each time. Further, in [6], the inhibition result was “inactive”.

Turning to `CCCCNNC(=O)c1cccc2ccccc12`, the IC50 in series [8] was > 10 µM.

With `CC(C)NNC(=O)c1ccc(CNC(=O)c2ccccc2)cc1`, the IC50 in series [8] was > 10 µM.

For `CCCCNNC(=O)c1ccc(CNC(=O)c2ccccc2)cc1`, the Drug metabolism result in series [1] and in series [2] was “Metabolite_Notdetected” throughout. Also, the Activity result in [3] is “Non-Toxic”. The inhibition entry in [4] (setting [17]) and in series [5] (setting [17]) was “Active” throughout. In [6], the inhibition result is “inactive”.

For `CCCNNC(=O)c1ccc(CNC(=O)/C=C/c2ccccc2)cc1`, the results for the Drug metabolism result in [1], in series [2] and in [15] were “Metabolite_Notdetected”, “Metabolite_Notdetected” and “Metabolite_Detected”, respectively. Also, the EC50 in series [9] was 36.4 nM; in series [10], 76.6 nM; in [11] it was 152 nM; in [12], 2160 nM; in series [13] it was > 10 µM; in [14], > 10 µM. For the same compound, the Activity result in [3] and in [7] was “Non-Toxic” throughout. Besides, the inhibition entry in [4] (setting [17]) and in series [5] (setting [17]) was “Active” throughout. In addition, in series [6], the inhibition result was “inactive”.

On to `CC/C=N/NC(=O)c1ccc(CNC(=O)c2ccccc2)cc1`, for which the IC50 in [8] was > 10 µM. Also, the inhibition result in [4] (MV4-11, dose 100.0 nM) was “inactive”; in series [5] (MV4-11, dose 100.0 nM) it was “inactive”.

Turning to `O=C(CCCCCCC(=O)Nc1ccccc1)NO` [VORINOSTAT], the Drug metabolism result is “Metabolite_Detected” in series [1] and “Metabolite_Notdetected” in series [2].

For `C/C=C/CNNC(=O)c1ccc(CNC(=O)c2ccccc2)cc1`, in series [8], the IC50 was found to be 1.55 µM.

In the case of `Nc1ccccc1NC(=O)c1ccc(CNC(=O)OCc2cccnc2)cc1` [ENTINOSTAT], the EC50 in series [9] was < 30 nM.

Regarding `Cc1[nH]c2ccccc2c1CCNCc1ccc(/C=C/C(=O)NO)cc1` [PANOBINOSTAT], the EC50 in series [9] is < 30 nM. Also, the Activity entry in [16] is recorded as “Toxic”.
